Experimental data published in EP1137645B1, “ALPHA-METHYLBENZYL-CONTAINING THIOUREA INHIBITORS OF HERPES VIRUSES CONTAINING A […] GROUP” (Wyeth, priority 1998, dated 2000).
In brackets after ≈: the same amount, converted by molar mass. Like-named read-outs stand apart in the source and are kept apart here.

Columns and labels:
[1] = tested on: HCMV recombinant mutant virus whose genome contains the prokaryotic beta-glucuronidase gene; experiment: microbe, parasite or virus in culture; format: cell-based, human cytomegalovirus; details: Human betaherpesvirus 5, Fibroblast
How it was run: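 Antiviral IC50 estimated from reduced reporter activity across compound amounts: lysates prepared 96 h after infection were tested with p-nitrophenyl- or methylumbelliferyl-glucuronide. Cells were human foreskin fibroblasts, infected alongside inhibitor with HCMV (e.g. RV145) expressing viral promoter-driven beta-glucuronidase.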

HSV- I = experiment: HSV antiviral (ELISA) assay; format: cell-based; details: read-out: IC50 (ug/ml) HSV
How it was run: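 IC50 from fluorescence versus untreated control in a cell ELISA: anti-glycoprotein D antibody, β-galactosidase-conjugated secondary, 4-methyl umbelliferone read at 365/450 nm. Vero cells (2% FBS DMEM) received compound 30 min pre-infection with HSV-1 at MOI 0.006, fixed ~24 h post-infection.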

VZV strain Ellen = experiment: VZV antiviral (ELISA) assay; format: cell-based
How it was run: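 HFF cells infected with VZV Ellen at multiplicity below 0.1 overnight, then mixed infected/uninfected cells seeded with compound in DMEM/2% FBS and incubated three days at 37°C, 5% CO2.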

[2] = read-out: IC50 ug/ml HCMV, HCMV, human foreskin fibroblasts
[3] = Human alphaherpesvirus 3, HFF, read-out: % inhibition 10 ug/ml VZV
[4] = Human alphaherpesvirus 3, HFF, read-out: IC50 (ug/ml) VZV
[5] = Human alphaherpesvirus 3, VZV strain Ellen, HFF cells, ELISA, read-out: IC50 (ug/ml) VZV
[6] = Human alphaherpesvirus 3, HFF, read-out: IC50 (ug/ml) VZV, VZV strain Ellen, HFF cells, ELISA

Structure (SMILES)	IC50 [1, 2] [µg/mL]	IC50 (HSV- I; HSV- I, Vero cells, ELISA) [µg/mL]	inhibition at 10 µg/mL (VZV strain Ellen; [3]) [%]	IC50 (VZV strain Ellen; [4]) [µg/mL]	IC50 ([1]; read-out: IC50 ug/ml HCMV) [µg/mL]	IC50 (VZV strain Ellen; [5]) [µg/mL]	IC50 (HSV- I; Vero) [µg/mL]	IC50 (VZV strain Ellen; [6]) [µg/mL]	inhibition at 10 µg/mL (VZV strain Ellen; Human alphaherpesvirus 3, read-out: % inhibition 10 ug/ml VZV, 10 ug/ml, VZV strain Ellen, HFF cells, ELISA) [%]
COc1cc(OC)c(NC(=S)Nc2ccc(NC(=O)c3ccccc3F)c(Cl)c2)cc1Cl [Example 278, N-{2-Chloro-4-[3-(5-chloro-2,4-dimethoxy-phenyl)-thioureido]-phenyl}-2-fluoro-benzamide]	> 10	> 10	15	> 10					
CC(NC(=S)Nc1ccc(NC(=O)c2ccccc2F)cc1)c1ccccc1F (stereo not drawn) [Example 778, 2-Fluoro-N-(4-{3-[1-(2-fluoro-phenyl)-ethyl]-thioureido}-phenyl)-benzamide]		> 10			0.8 (≈ 1.94 µM)	3 (≈ 7.29 µM)			
Cc1ccccc1C(C)NC(=S)Nc1ccc(NC(=O)c2ccccc2F)cc1 (stereo not drawn) [Example 775, 2-Fluoro-N-{4-[3-(1-o-tolyl-ethyl)-thioureido]-phenyl}-benzamide]	1 (≈ 2.45 µM)						> 10	> 7.5	
Nc1c(Cl)cc(NC(=S)Nc2ccc(NC(=O)c3ccccc3F)cc2)cc1Cl [Example 518, N-{4-[3-(4-Amino-3,5-dichloro-phenyl)-thioureido]-phenyl}-2-fluoro-benzamide]	4 (≈ 8.9 µM)	0.25 (≈ 0.556 µM)	32	> 10					
CSc1ccc(NC(=S)Nc2ccc(NC(=O)c3ccccc3C)cc2)cc1Cl [Example 342, N-{4-[3-(3-Chloro-4-methylsulfanyl-phenyl)-thioureido]-phenyl}-2-methyl-benzamide]	1.4 (≈ 3.17 µM)	0.2 (≈ 0.452 µM)	62	> 10					
CC(NC(=S)Nc1ccc(NC(=O)c2ccccc2F)cc1)c1ccccc1C(F)(F)F (stereo not drawn) [Example 785, 2-Fluoro-N-(4-{3-[1-(2-trifluoromethyl-phenyl)-ethyl]-thioureido}-phenyl)-benzamide]		> 10			> 2.2	> 7.5			
CC(NC(=S)Nc1ccc(NC(=O)c2ccccc2F)cc1)c1cccc(N(C)C)c1 (stereo not drawn) [Example 794, N-(4-{3-[1-(3-Dimethylamino-phenyl)-ethyl]-thioureido}-phenyl)-2-fluoro-benzamide]	6.2 (≈ 14.2 µM)						7 (≈ 16 µM)	0.4 (≈ 0.916 µM)	
COc1cccc(C(=O)Nc2ccc(NC(=S)Nc3cc(Cl)c(OC)cc3OC)cc2)c1 [Example 120, N-{4-[3-(5-Chloro-2,4-dimethoxy-phenyl)-thioureido]-phenyl}-3-methoxy-benzamide]	5 (≈ 10.6 µM)	0.8 (≈ 1.7 µM)	25	> 10					
CCCCSc1ccc(NC(=S)Nc2ccc(NC(=O)c3ccccc3F)cc2)cc1Cl [Example 387, N-{4-[3-(4-Butylsulfanyl-3-chloro-phenyl)-thioureido]-phenyl}-2-fluoro-benzamide]	> 10	> 10	26	> 10					
COc1cccc(NC(=S)Nc2ccc(NC(=O)c3ccccc3F)cc2)c1 [Example 487, 2-Fluoro-N-{4-[3-(3-methoxy-phenyl)-thioureido]-phenyl}-benzamide]		4 (≈ 10.1 µM)			10 (≈ 25.3 µM)	> 10			48
CC(N=[N+]=[N-])c1ccc(NC(=S)Nc2ccc(NC(=O)c3ccccc3F)cc2)cc1Cl (stereo not drawn) [Example 492, N-(4-{3-[4-(1-Azido-ethyl)-3-chloro-phenyl]-thioureido}-phenyl)-2-fluoro-benzamide]	2 (≈ 4.26 µM)	> 10	32	> 10					
Cc1ccccc1C(=O)Nc1ccc(NC(=S)Nc2ccc(N(C)C3CCN(C)CC3)c(Cl)c2)cc1 [Example 375, N-[4-(3-{3-Chloro-4-[methyl-(1-methyl-piperidin-4-yl)-amino]-phenyl}-thioureido)-phenyl]-2-methyl-benzamide]	1.5 (≈ 2.87 µM)	5 (≈ 9.58 µM)	95	7 (≈ 13.4 µM)					
COc1cccc(C(=O)Nc2ccc(NC(=S)Nc3ccc(C)c(Cl)c3)cc2)c1 [Example 232, N-{4-[3-(3-Chloro-4-methyl-phenyl)-thioureido]-phenyl}-3-methoxy-benzamide]	> 10	1 (≈ 2.35 µM)	21	> 10					
